Values of other authors, collected in publication PMC4474859 (PLoS ONE, 2015).

Key:
[1] = tested on: MmImpα; conditions: in words
Description: (§1) Affinity assays between NLS peptides and Impα proteins have been performed based in indirect affinity measurements, using Surface Plasmon Resonance (SPR), and ITC [19, 38, 55]. Indirect affinity measurements between NLSs and Impα proteins reported dissociation constants in the nM range and permitted the comparison among these molecules. SPR experiments was only able to estimate the peptide-protein affinity in the μM range which was lately confirmed by ITC experiments.

[2] = tested on: Impα/Impβ complex; conditions: full length protein vs NLS peptide
Description: as §1

Row | Substance | binding site on MmImpα [1] | increase in affinity compared to just nucleoplasmin NLS peptide [2] [fold]
1 | GSIIRKWN [hPLSCR4 NLS peptide] | binds only the minor site of MmImpα | 
2 | full length nucleoplasmin protein: full length nucleoplasmin protein binds to Impα/Impβ complex |  | 2
